Key:
Format in all cases: in vivo
[1] = test system: field corn (Zea mays L., var. Dekalb 535, CORN); test: Pre-emerge greenhouse test, crop damage rating; details: 14 days after application, rating scale 0-100
Outline: (§1)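 Seeds sown in sandy loam one day before track-sprayer application of acetone solutions at 125–1000 g ai/ha (187 l/ha), then surface-watered to incorporate and bottom-watered. Injury scored visually at 14 days on a 0–100 scale (0 no damage, 100 complete death).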

[2] = test system: upland rice (Oryza sp., var.Tebonnet, RICE); test: Pre-emerge greenhouse test, crop damage rating; details: 14 days after application, rating scale 0-100
Outline: as §1

[3] = test system: common ragweed (Ambrosia artemisiifolia L., AMBEL); test: Post-emerge greenhouse herbicide test, phytotoxicity rating; details: 14 days after application
Outline: (§2)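 Plants at the 2-3 leaf stage, sown 8-21 days earlier, were track-sprayed post-emergence with compound in acetone plus 0.25% v/v non-ionic surfactant at 63-1000 g ai/ha (187 l/ha). Damage was rated at 14 days on a 0-100 scale (0 none, 100 all plants dead), for both crop injury and weed control.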

[4] = test system: field corn (Zea mays L., var. Dekalb 535, CORN); test: Post-emerge greenhouse test, crop damage rating; details: 14 days after application
Outline: as §2

[5] = test system: upland rice (Oryza sp., var.Tebonnet, RICE); test: Post-emerge greenhouse test, crop damage rating; details: 14 days after application
Outline: as §2

[6] = test system: redroot pigweed (Amaranthus retroflexus, AMARE); test: Post-emerge greenhouse herbicide test, phytotoxicity rating; details: 14 days after application
Outline: as §2

[7] = test system: barnyardgrass (Echinochloa crusgalli, ECHCG); test: as above; details: 14 days after application
Outline: as §2

[8] = test system: ivyleaf morningglory (Ipomoea hederacea, IPOHE); test: as above; details: 14 days after application
Outline: as §2

[9] = test system: Johnsongrass (Sorghum halepense, SORHA); test: as above; details: 14 days after application
Outline: as §2

[10] = test system: large crabgrass (Digitaria sanguinalis, DIGSA); test: as above; details: 14 days after application
Outline: as §2

[11] = test system: velvetleaf (Abutilon theophrasti, ABUTH); test: as above; details: 14 days after application
Outline: as §2

[12] = test system: green foxtail (Setaria viridis, SETVI); test: as above; details: 14 days after application
Outline: as §2

[13] = test system: lambsquarters (Chenopodium album, CHEAL); test: as above; details: 14 days after application
Outline: as §2

[14] = test system: redroot pigweed (Amaranthus retroflexus, AMARE); test: Pre-emerge greenhouse herbicide test, phytotoxicity rating; details: 14 days after application, rating scale 0-100
Outline: as §1

[15] = test system: barnyardgrass (Echinochloa crusgalli, ECHCG); test: as above; details: 14 days after application, rating scale 0-100
Outline: as §1

[16] = test system: ivyleaf morningglory (Ipomoea hederacea, IPOHE); test: as above; details: 14 days after application, rating scale 0-100
Outline: as §1

[17] = test system: Johnsongrass (Sorghum halepense, SORHA); test: as above; details: 14 days after application, rating scale 0-100
Outline: as §1

[18] = test system: large crabgrass (Digitaria sanguinalis, DIGSA); test: as above; details: 14 days after application, rating scale 0-100
Outline: as §1

[19] = test system: sicklepod (Cassia obtusifolia, CASOB); test: as above; details: 14 days after application, rating scale 0-100
Outline: as §1

[20] = test system: common ragweed (Ambrosia artemisiifolia L., AMBEL); test: as above; details: 14 days after application, rating scale 0-100
Outline: as §1

[21] = test system: velvetleaf (Abutilon theophrasti, ABUTH); test: as above; details: 14 days after application, rating scale 0-100
Outline: as §1

[22] = test system: green foxtail (Setaria viridis, SETVI); test: as above; details: 14 days after application, rating scale 0-100
Outline: as §1

[23] = test system: lambsquarters (Chenopodium album, CHEAL); test: as above; details: 14 days after application, rating scale 0-100
Outline: as §1

[24] = test system: soybean (Glycine max L., var. Pella 86, SOY); test: Post-emerge greenhouse test, crop damage rating; details: 14 days after application
Outline: as §2

[25] = test system: soybean (Glycine max L., var. Pella 86, SOY); test: Pre-emerge greenhouse test, crop damage rating; details: 14 days after application, rating scale 0-100
Outline: as §1

Cn1nc(-c2cc(Oc3ncccc3C#N)c(Cl)cc2F)c(Cl)c1C(F)(F)F [Compound 1-3]
90: IPOHE phytotoxicity rating (0-100) ([8]; 63 g al/ha) | SETVI phytotoxicity rating (0-100) ([12]; 500 g al/ha) | phytotoxicity rating CHEAL ([23]; 125 g ai/ha) | SOY crop damage rating (0-100) ([24]; 500 g al/ha)
0: crop damage rating CORN ([1]; 125 g ai/ha) | crop damage rating RICE ([2]; 125 g ai/ha) | AMBEL phytotoxicity rating (0-100) ([3]; 63 g al/ha) | CORN crop damage rating (0-100) ([4]; 63 g al/ha) | ECHCG phytotoxicity rating (0-100) ([7]; 63 g al/ha) | DIGSA phytotoxicity rating (0-100) ([10]; 63 g al/ha) | SETVI phytotoxicity rating (0-100) ([12]; 63 g al/ha) | phytotoxicity rating ECHCG ([15]; 125 g ai/ha) | phytotoxicity rating IPOHE ([16]; 125 g ai/ha) | phytotoxicity rating SORHA ([17]; 125 g ai/ha) | phytotoxicity rating DIGSA ([18]; 500 g ai/ha) | phytotoxicity rating CASOB ([19]; 125 g ai/ha) | phytotoxicity rating ABUTH ([21]; 500 g ai/ha) | crop damage rating SOY ([25]; 125 g ai/ha)
30: crop damage rating RICE ([2]; 500 g ai/ha) | phytotoxicity rating IPOHE ([16]; 500 g ai/ha) | SOY crop damage rating (0-100) ([24]; 63 g al/ha)
100: AMARE phytotoxicity rating (0-100) ([6]; 63 g al/ha) | AMARE phytotoxicity rating (0-100) ([6]; 500 g al/ha) | ABUTH phytotoxicity rating (0-100) ([11]; 500 g al/ha) | CHEAL phytotoxicity rating (0-100) ([13]; 500 g al/ha) | phytotoxicity rating AMARE ([14]; 125 g ai/ha) | phytotoxicity rating AMARE ([14]; 500 g ai/ha) | phytotoxicity rating ECHCG ([15]; 500 g ai/ha) | phytotoxicity rating CHEAL ([23]; 500 g ai/ha)
50: phytotoxicity rating AMBEL ([20]; 125 g ai/ha) | phytotoxicity rating AMBEL ([20]; 500 g ai/ha)
20: RICE crop damage rating (0-100) ([5]; 63 g al/ha) | SORHA phytotoxicity rating (0-100) ([9]; 63 g al/ha) | phytotoxicity rating DIGSA ([18]; 125 g ai/ha) | phytotoxicity rating ABUTH ([21]; 125 g ai/ha)
70: RICE crop damage rating (0-100) ([5]; 500 g al/ha) | ECHCG phytotoxicity rating (0-100) ([7]; 500 g al/ha) | ABUTH phytotoxicity rating (0-100) ([11]; 63 g al/ha)
40: crop damage rating CORN ([1]; 500 g ai/ha) | phytotoxicity rating SORHA ([17]; 500 g ai/ha)
10: CORN crop damage rating (0-100) ([4]; 500 g al/ha) | IPOHE phytotoxicity rating (0-100) ([8]; 500 g al/ha)
95: CHEAL phytotoxicity rating (0-100) ([13]; 63 g al/ha) | phytotoxicity rating SETVI ([22]; 125 g ai/ha) | crop damage rating SOY ([25]; 500 g ai/ha)
80: AMBEL phytotoxicity rating (0-100) ([3]; 500 g al/ha) | SORHA phytotoxicity rating (0-100) ([9]; 500 g al/ha) | DIGSA phytotoxicity rating (0-100) ([10]; 500 g al/ha) | phytotoxicity rating CASOB ([19]; 500 g ai/ha)

Cn1nc(-c2cc(Oc3nc(F)c(F)cc3F)c(Cl)cc2F)c(Cl)c1C(F)(F)F [Compound 1-6]
80: phytotoxicity rating ABUTH ([21]; 500 g ai/ha)
40: phytotoxicity rating CHEAL ([23]; 125 g ai/ha)
90: AMBEL phytotoxicity rating (0-100) ([3]; 500 g al/ha) | phytotoxicity rating SORHA ([17]; 500 g ai/ha)
10: CORN crop damage rating (0-100) ([4]; 63 g al/ha) | CORN crop damage rating (0-100) ([4]; 500 g al/ha) | phytotoxicity rating DIGSA ([18]; 500 g ai/ha)
20: ECHCG phytotoxicity rating (0-100) ([7]; 63 g al/ha) | SETVI phytotoxicity rating (0-100) ([12]; 63 g al/ha) | phytotoxicity rating DIGSA ([18]; 125 g ai/ha)
99: AMARE phytotoxicity rating (0-100) ([6]; 63 g al/ha) | phytotoxicity rating AMARE ([14]; 500 g ai/ha) | phytotoxicity rating IPOHE ([16]; 500 g ai/ha) | phytotoxicity rating AMBEL ([20]; 500 g ai/ha)
100: AMARE phytotoxicity rating (0-100) ([6]; 500 g al/ha) | IPOHE phytotoxicity rating (0-100) ([8]; 500 g al/ha) | ABUTH phytotoxicity rating (0-100) ([11]; 500 g al/ha) | CHEAL phytotoxicity rating (0-100) ([13]; 500 g al/ha) | phytotoxicity rating AMBEL ([20]; 125 g ai/ha) | phytotoxicity rating CHEAL ([23]; 500 g ai/ha)
70: ECHCG phytotoxicity rating (0-100) ([7]; 500 g al/ha) | SORHA phytotoxicity rating (0-100) ([9]; 500 g al/ha) | phytotoxicity rating ECHCG ([15]; 500 g ai/ha)
30: SORHA phytotoxicity rating (0-100) ([9]; 63 g al/ha) | CHEAL phytotoxicity rating (0-100) ([13]; 63 g al/ha) | phytotoxicity rating ECHCG ([15]; 125 g ai/ha) | phytotoxicity rating IPOHE ([16]; 125 g ai/ha) | phytotoxicity rating SETVI ([22]; 500 g ai/ha) | SOY crop damage rating (0-100) ([24]; 63 g al/ha)
95: phytotoxicity rating AMARE ([14]; 125 g ai/ha)
50: IPOHE phytotoxicity rating (0-100) ([8]; 63 g al/ha) | ABUTH phytotoxicity rating (0-100) ([11]; 63 g al/ha) | phytotoxicity rating ABUTH ([21]; 125 g ai/ha) | SOY crop damage rating (0-100) ([24]; 500 g al/ha)
60: SETVI phytotoxicity rating (0-100) ([12]; 500 g al/ha) | phytotoxicity rating SETVI ([22]; 125 g ai/ha)
0: crop damage rating CORN ([1]; 125 g ai/ha) | crop damage rating CORN ([1]; 500 g ai/ha) | crop damage rating RICE ([2]; 125 g ai/ha) | AMBEL phytotoxicity rating (0-100) ([3]; 63 g al/ha) | DIGSA phytotoxicity rating (0-100) ([10]; 63 g al/ha) | phytotoxicity rating SORHA ([17]; 125 g ai/ha) | phytotoxicity rating CASOB ([19]; 125 g ai/ha) | phytotoxicity rating CASOB ([19]; 500 g ai/ha) | crop damage rating SOY ([25]; 125 g ai/ha) | crop damage rating SOY ([25]; 500 g ai/ha)

Reference: patent US6479435B1, “Diaryl ethers and processes for their preparation and herbicidal and desiccant compositions containing them” (ISK Americas Incorporated, priority 1997, dated 2002)
